Where two headings read alike, the source gives them in different places.
Molecular target: T1, BRAF V600E (Homo sapiens, UniProt P15056+Q96SW2, V600E)
T1 construct: knock-in of the HiBiT tag to the endogenous BRAF V600E locus; host or cells: A375.10 (A375 clonal line, CRISPR HiBiT knock-in at the endogenous BRAF V600E locus)
Assay: BRAF V600E HiBiT Degradation Assay
Type: cell-based
Summary of the method: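 Endogenous HiBiT knock-in on BRAF V600E in A375 cells (clone A375.10); 11-point half-log series, top 10 μM, 2, 6 or 24 h at 37° C. Lytic HiBiT luminescence, background-subtracted, normalized to DMSO; 4-parameter fit gives DC50, Emax (residual protein) and IP (inflection point).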

[1] = A375.10 cells, BRAF V600E, 2 hours, inflection point, read-out: HiBiT-Degradation A375.10 BRAF 2 hours IP
[2] = A375.10 cells, BRAF V600E, 2 hours, read-out: HiBiT-Degradation A375.10 BRAF 2 hours DC50
[3] = A375.10 cells, BRAF V600E, 2 hours, residual protein remaining, read-out: HiBiT-Degradation A375.10 BRAF 2 hours Emax
[4] = A375.10 cells, BRAF V600E, 6 hours, inflection point, read-out: HiBiT-Degradation A375.10 BRAF 6 hours IP
[5] = A375.10 cells, BRAF V600E, 6 hours, read-out: HiBiT-Degradation A375.10 BRAF 6 hours DC50
[6] = A375.10 cells, BRAF V600E, 6 hours, residual protein remaining, read-out: HiBiT-Degradation A375.10 BRAF 6 hours Emax
[7] = A375.10 cells, HiBiT, BRAF V600E, 24 hours, read-out: HiBiT-Degradation A375.10 BRAF 24 hours DC50
[8] = A375.10 cells, HiBiT, BRAF V600E, 24 hours, read-out: HiBiT-Degradation A375.10 BRAF 24 hours Emax
[9] = A375.10 cells, HiBiT, BRAF V600E, 24 hours, read-out: HiBiT-Degradation A375.10 BRAF 24 hours IP
[10] = read-out: HiBiT-Degradation A375.10 BRAF 2 hours Emax, A375.10 cells, BRAF V600E, 2 hours, residual protein remaining

T1 sequence (P15056 whole entry V600E): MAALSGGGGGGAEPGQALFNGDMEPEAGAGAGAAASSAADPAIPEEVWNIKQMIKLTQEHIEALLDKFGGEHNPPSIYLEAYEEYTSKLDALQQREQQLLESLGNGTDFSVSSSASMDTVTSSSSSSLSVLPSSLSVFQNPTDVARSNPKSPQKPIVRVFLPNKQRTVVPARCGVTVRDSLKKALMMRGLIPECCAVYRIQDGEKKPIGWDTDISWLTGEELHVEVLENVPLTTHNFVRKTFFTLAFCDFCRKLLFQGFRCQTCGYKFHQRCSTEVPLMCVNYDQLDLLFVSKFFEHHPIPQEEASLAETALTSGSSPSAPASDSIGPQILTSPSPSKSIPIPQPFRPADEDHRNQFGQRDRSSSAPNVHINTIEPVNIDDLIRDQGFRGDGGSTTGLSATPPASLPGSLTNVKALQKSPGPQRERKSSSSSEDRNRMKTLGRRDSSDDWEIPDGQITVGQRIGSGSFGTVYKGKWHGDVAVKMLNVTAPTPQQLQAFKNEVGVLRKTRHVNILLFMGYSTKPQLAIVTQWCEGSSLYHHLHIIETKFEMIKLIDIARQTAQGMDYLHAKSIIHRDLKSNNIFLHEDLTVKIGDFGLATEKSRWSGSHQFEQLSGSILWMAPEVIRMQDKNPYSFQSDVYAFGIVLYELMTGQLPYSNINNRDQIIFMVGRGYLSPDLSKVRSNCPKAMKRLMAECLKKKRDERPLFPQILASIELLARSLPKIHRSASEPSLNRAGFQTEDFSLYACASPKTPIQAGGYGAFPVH
T1 sequence (Q96SW2 whole entry): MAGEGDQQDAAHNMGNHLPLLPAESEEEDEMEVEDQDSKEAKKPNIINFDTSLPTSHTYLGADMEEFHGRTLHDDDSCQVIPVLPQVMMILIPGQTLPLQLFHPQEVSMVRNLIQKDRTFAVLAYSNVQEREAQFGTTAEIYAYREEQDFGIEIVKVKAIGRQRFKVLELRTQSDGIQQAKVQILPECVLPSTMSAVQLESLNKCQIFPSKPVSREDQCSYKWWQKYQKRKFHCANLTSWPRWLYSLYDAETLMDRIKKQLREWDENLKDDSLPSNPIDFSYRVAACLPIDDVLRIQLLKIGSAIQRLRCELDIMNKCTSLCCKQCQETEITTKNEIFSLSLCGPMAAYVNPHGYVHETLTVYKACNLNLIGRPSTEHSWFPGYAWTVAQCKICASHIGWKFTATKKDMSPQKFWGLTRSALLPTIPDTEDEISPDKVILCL
T1 sequence (Q16531 whole entry partner): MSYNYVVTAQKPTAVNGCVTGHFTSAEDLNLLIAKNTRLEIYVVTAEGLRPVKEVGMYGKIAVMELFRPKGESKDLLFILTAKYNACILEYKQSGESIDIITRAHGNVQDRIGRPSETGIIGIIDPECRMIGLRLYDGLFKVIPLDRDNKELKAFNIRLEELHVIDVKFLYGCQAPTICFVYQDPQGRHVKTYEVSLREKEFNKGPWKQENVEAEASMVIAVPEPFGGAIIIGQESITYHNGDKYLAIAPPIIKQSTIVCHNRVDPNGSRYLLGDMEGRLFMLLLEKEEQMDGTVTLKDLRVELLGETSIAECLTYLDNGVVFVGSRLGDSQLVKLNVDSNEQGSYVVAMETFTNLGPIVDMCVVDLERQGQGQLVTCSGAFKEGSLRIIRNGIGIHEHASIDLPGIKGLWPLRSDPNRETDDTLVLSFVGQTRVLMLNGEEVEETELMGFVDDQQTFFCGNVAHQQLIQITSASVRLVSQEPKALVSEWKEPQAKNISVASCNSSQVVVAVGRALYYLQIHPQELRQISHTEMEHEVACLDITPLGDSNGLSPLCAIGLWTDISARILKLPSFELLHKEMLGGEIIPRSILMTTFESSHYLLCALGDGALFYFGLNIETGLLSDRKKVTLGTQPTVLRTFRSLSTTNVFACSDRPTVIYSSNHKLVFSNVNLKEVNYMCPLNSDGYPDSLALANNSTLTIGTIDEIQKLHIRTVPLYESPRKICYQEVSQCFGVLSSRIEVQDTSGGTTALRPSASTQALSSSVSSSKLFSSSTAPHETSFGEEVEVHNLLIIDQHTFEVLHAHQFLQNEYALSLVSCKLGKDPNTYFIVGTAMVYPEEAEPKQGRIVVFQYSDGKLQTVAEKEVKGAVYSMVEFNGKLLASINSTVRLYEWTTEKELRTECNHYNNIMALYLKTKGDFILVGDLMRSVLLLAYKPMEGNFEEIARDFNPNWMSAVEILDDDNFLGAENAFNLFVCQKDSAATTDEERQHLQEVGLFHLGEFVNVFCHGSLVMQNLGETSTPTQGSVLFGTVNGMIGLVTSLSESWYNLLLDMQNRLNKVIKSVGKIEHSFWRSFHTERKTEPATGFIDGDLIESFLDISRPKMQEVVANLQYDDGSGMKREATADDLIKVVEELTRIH

Row | SMILES | DC50 [1] [nM] | DC50 [2] [nM] | Emax [3] [%] | DC50 [4] [nM] | DC50 [5] [nM] | Emax [6] [%] | DC50 [7] [nM] | Emax [8] [%] | DC50 [9] [nM] | DC50 (read-out: HiBiT-Degradation A375.10 BRAF 2 hours DC50, A375.10 cells, BRAF V600E, 2 hours) [nM] | DC50 (read-out: HiBiT-Degradation A375.10 BRAF 2 hours IP, A375.10 cells, BRAF V600E, 2 hours, inflection point) [nM] | DC50 (read-out: HiBiT-Degradation A375.10 BRAF 6 hours DC50, A375.10 cells, BRAF V600E, 6 hours) [nM] | DC50 (read-out: HiBiT-Degradation A375.10 BRAF 6 hours IP, A375.10 cells, BRAF V600E, 6 hours, inflection point) [nM] | DC50 (read-out: HiBiT-Degradation A375.10 BRAF 24 hours DC50, A375.10 cells, HiBiT, BRAF V600E, 24 hours) [nM] | DC50 (read-out: HiBiT-Degradation A375.10 BRAF 24 hours IP, A375.10 cells, HiBiT, BRAF V600E, 24 hours) [nM] | Emax [10] [%]
1 | CO[C@@H]1CCN(S(=O)(=O)Nc2ccc(F)c(Oc3ccc4ncn([C@H]5COC6(CCN(C7CCC(c8ccc(NC9CCC(=O)NC9=O)cc8F)CC7)CC6)C5)c(=O)c4c3)c2C#N)C1 (single isomer, unassigned) [Compound 109] | < 1000 | < 1000 | < 50 | < 1000 | < 1000 | < 50 | < 1000 | < 50 | < 1000 |  |  |  |  |  |  | 
2 | CCN(C)S(=O)(=O)Nc1ccc(F)c(Oc2ccc3ncn([C@H]4COC5(CCC(N6CCN(c7ccc(NC8CCC(=O)NC8=O)cc7F)CC6)CC5)C4)c(=O)c3c2)c1C#N (stereo partly drawn) [Compound 40, 6-[2-cyano-3-[[ethyl(methyl)sulfamoyl]amino]-6-fluoro-phenoxy]-3-[(3R)-8-[4-[4-[(2,6-dioxo-3-piperidyl)amino]-2-fluoro-phenyl]piperazin-1-yl]-1-oxaspiro[4.5]decan-3-yl]-4-oxo-quinazoline] |  |  | 50 to 90 |  |  | < 50 |  | < 50 |  | 1000 to 10000 | < 1000 | < 1000 | < 1000 | < 1000 | < 1000 | 
3 | CO[C@@H]1CCN(S(=O)(=O)Nc2ccc(F)c(Oc3ccc4ncn(C5CC6(CCN(C7CCC(c8cc9c(cc8F)c(N8CCC(=O)NC8=O)nn9C)CC7)CC6)C5)c(=O)c4c3)c2C#N)C1 (single isomer, unassigned) [Compound 101] | < 1000 | < 1000 | < 50 | < 1000 | < 1000 | < 50 | < 1000 | < 50 | < 1000 |  |  |  |  |  |  | 
4 | CCN(C)S(=O)(=O)Nc1ccc(F)c(Oc2ccc3ncn([C@@H]4C[C@@H]5CN(C6CCC(c7ccc(NC8CCC(=O)NC8=O)cc7F)CC6)C[C@@H]5C4)c(=O)c3c2)c1C#N (single isomer, unassigned) [Compound 21] | < 1000 | < 1000 | < 50 | < 1000 | < 1000 | < 50 | < 1000 | < 50 | < 1000 |  |  |  |  |  |  | 
5 | CCN(C)S(=O)(=O)Nc1ccc(F)c(Oc2ccc3ncn([C@H]4CCC5(CCN(C6CCC(c7ccc(NC8CCC(=O)NC8=O)cc7F)CC6)CC5)C4)c(=O)c3c2)c1C#N (single isomer, unassigned) [Compound 24] | < 1000 | < 1000 | < 50 | < 1000 | < 1000 | < 50 | < 1000 | < 50 | < 1000 |  |  |  |  |  |  | 
6 | CCN(C)S(=O)(=O)Nc1ccc(F)c(Oc2ccc3ncn([C@H]4COC5(CCN(C6CCC(c7ccc(NC8CCC(=O)NC8=O)cc7F)CC6)CC5)C4)c(=O)c3c2)c1F (single isomer, unassigned) [Compound 78] | < 1000 | < 1000 | < 50 | < 1000 | < 1000 | < 50 | < 1000 | < 50 | < 1000 |  |  |  |  |  |  | 
7 | CC(C)S(=O)(=O)Nc1ccc(F)c(Oc2ccc3ncn([C@H]4COC5(CCN(C6CCC(c7ccc(NC8CCC(=O)NC8=O)cc7F)CC6)CC5)C4)c(=O)c3c2)c1C#N (single isomer, unassigned) [Compound 92] | < 1000 | < 1000 | < 50 | < 1000 | < 1000 | < 50 | < 1000 | < 50 | < 1000 |  |  |  |  |  |  | 
8 | CCN(C)S(=O)(=O)Nc1ccc(F)c(Oc2ccc3ncc(C4CC5(CCN(C6CCC(c7cc8c(cc7F)c(N7CCC(=O)NC7=O)nn8C)CC6)CC5)C4)nc3c2)c1C#N (single isomer, unassigned) [Compound 180, 7-[2-cyano-3-[[ethyl(methyl)sulfamoyl]amino]-6-fluoro-phenoxy]-2-[7-[4-[3-(2,4-dioxohexahydropyrimidin-1-yl)-5-fluoro-1-methyl-indazol-6-yl]cyclohexyl]-7-azaspiro[3.5]nonan-2-yl]quinoxaline] | < 1000 | < 1000 |  | < 1000 | < 1000 | < 50 | < 1000 | < 50 | < 1000 |  |  |  |  |  |  | < 50
9 | Cn1nc(N2CCC(=O)NC2=O)c2cc(F)c(N3CC4(CC(N5CCC6(CC5)CC(n5cnc7ccc(Oc8c(F)ccc(NS(=O)(=O)C9CCCC9)c8C#N)cc7c5=O)C6)C4)C3)cc21 [Compound 250, N-[2-cyano-3-[3-[7-[2-[3-(2,4-dioxohexahydropyrimidin-1-yl)-5-fluoro-1-methyl-indazol-6-yl]-2-azaspiro[3.3]heptan-6-yl]-7-azaspiro[3.5]nonan-2-yl]-4-oxo-quinazolin-6-yl]oxy-4-fluoro-phenyl]cyclopentanesulfonamide] | < 1000 | < 1000 |  |  |  |  |  |  |  |  |  |  |  |  |  | < 50
10 | CCN(C)S(=O)(=O)Nc1ccc(F)c(Oc2ccc3ncn(C4CC5(CCN(C6CC7(CCN(c8cc9c(cc8F)c(N8CCC(=O)NC8=O)nn9C)CC7)C6)CC5)C4)c(=O)c3c2)c1C#N (stereo not drawn) [Compound 198, 6-[2-cyano-3-[[ethyl(methyl)sulfamoyl]amino]-6-fluoro-phenoxy]-3-[7-[7-[3-(2,4-dioxohexahydropyrimidin-1-yl)-5-fluoro-1-methyl-indazol-6-yl]-7-azaspiro[3.5]nonan-2-yl]-7-azaspiro[3.5]nonan-2-yl]-4-oxo-quinazoline] | < 1000 | < 1000 |  |  |  |  | < 1000 | < 50 | < 1000 |  |  |  |  |  |  | < 50
11 | CCN(C)S(=O)(=O)Nc1ccc(F)c(Oc2ccc3ncc(OCC4CCN(C5CCC(c6cc7c(cc6F)c(N6CCC(=O)NC6=O)nn7C)CC5)CC4)nc3c2)c1C#N (single isomer, unassigned) [Compound 118, 7-[2-cyano-3-[[ethyl(methyl)sulfamoyl]amino]-6-fluoro-phenoxy]-2-[[1-[4-[3-(2,4-dioxohexahydropyrimidin-1-yl)-5-fluoro-1-methyl-indazol-6-yl]cyclohexyl]-4-piperidyl]methoxy]quinoxaline] | < 1000 | < 1000 |  | < 1000 | < 1000 | < 50 | < 1000 | < 50 | < 1000 |  |  |  |  |  |  | 50 to 90
12 | CC(C)S(=O)(=O)Nc1ccc(F)c(Oc2ccc3ncn(C4CC5(CCN(C6CCC(c7cc8c(cc7F)c(N7CCC(=O)NC7=O)nn8C)CC6)CC5)C4)c(=O)c3c2)c1C#N (single isomer, unassigned) [Compound 95, N-[2-cyano-3-[3-[7-[4-[3-(2,4-dioxohexahydropyrimidin-1-yl)-5-fluoro-1-methyl-indazol-6-yl]cyclohexyl]-7-azaspiro[3.5]nonan-2-yl]-4-oxo-quinazolin-6-yl]oxy-4-fluoro-phenyl]propane-2-sulfonamide] | < 1000 | < 1000 | < 50 | < 1000 | < 1000 | < 50 | < 1000 | < 50 | < 1000 |  |  |  |  |  |  | 
13 | CCN(C)S(=O)(=O)Nc1ccc(F)c(Oc2ccc3ncc([C@H]4COC5(CCN(C6CCC(c7cc8c(cc7F)c(N7CCC(=O)NC7=O)nn8C)CC6)CC5)C4)nc3c2)c1C#N (single isomer, unassigned) [Compound 48] | < 1000 | < 1000 |  | < 1000 | < 1000 | < 50 | < 1000 | < 50 | < 1000 |  |  |  |  |  |  | < 50
14 | CCN(C)S(=O)(=O)Nc1ccc(F)c(Nc2ccc3ncn([C@@H]4COC5(CCN(C6CCC(c7ccc(NC8CCC(=O)NC8=O)cc7F)CC6)CC5)C4)c(=O)c3c2F)c1C#N (single isomer, unassigned) [Compound 90] | < 1000 | < 1000 | < 50 | < 1000 | < 1000 | < 50 | < 1000 | < 50 | < 1000 |  |  |  |  |  |  | 

— patent publication US20260297060A1, “COMPOUNDS FOR THE DEGRADATION OF MUTANT BRAF” (C4 THERAPEUTICS, INC., priority 2023, published 2026)
